Species on record: Rattus norvegicus
Test: DrugMatrix - Regimen: Daily Repeat
Assay type: toxicity, organism-based, Sprague-Dawley
Set-up: regimen Daily Repeat, gender Male, age 6-8 weeks
Settings: in vivo, sc, route subcutaneous, […]; for ABSOLUTE BASOPHIL / ABSOLUTE EOSINOPHIL / ABSOLUTE LYMPHOCYTE / ABSOLUTE MONOCYTE / ABSOLUTE SEGMENTED NEUTROPHIL / BASOPHIL / EOSINOPHIL / ERYTHROCYTE COUNT / HEMATOCRIT / HEMOGLOBIN / LEUKOCYTE COUNT / LYMPHOCYTE / MEAN CORPUSCULAR HEMOGLOBIN / MEAN CORPUSCULAR HEMOGLOBIN CONCENTRATION / MEAN CORPUSCULAR VOLUME / MONOCYTE / NEUTROPHIL / NUCLEATED RED BLOOD CELLS / PLATELET COUNT: tissue Blood; for ALANINE AMINOTRANSFERASE / ALBUMIN / ALKALINE PHOSPHATASE / ASPARTATE AMINOTRANSFERASE / BLOOD UREA NITROGEN / CARBON DIOXIDE / CHLORIDE / CHOLESTEROL / CREATINE PHOSPHOKINASE / CREATININE / GLUCOSE / LACTATE DEHYDROGENASE / LIPASE / PHOSPHORUS / POTASSIUM / SODIUM / TOTAL BILIRUBIN / TOTAL PROTEIN / URIC ACID: tissue Plasma
[1] = 47.4 mg/kg, 72 h, dose level Low, time 3 day
[2] = 47.4 mg/kg, 120 h, dose level Low, time 5 day
[3] = 474 mg/kg, 72 h, dose level High, time 3 day
[4] = 474 mg/kg, 120 h, dose level High, time 5 day

Compound: O=C(O)C(Cl)(Cl)Cl [TRICHLOROACETIC ACID]
- ABSOLUTE BASOPHIL [1]: 0 CELLS/uL
- ABSOLUTE EOSINOPHIL [1]: 262.67 CELLS/uL
- ABSOLUTE LYMPHOCYTE [1]: 11309 CELLS/uL
- ABSOLUTE MONOCYTE [1]: 301 CELLS/uL
- ABSOLUTE SEGMENTED NEUTROPHIL [1]: 1027.33 CELLS/uL
- BASOPHIL [1]: 0%
- EOSINOPHIL [1]: 2%
- ERYTHROCYTE COUNT [1]: 5.38 x10E6/uL
- HEMATOCRIT [1]: 34.53%
- HEMOGLOBIN [1]: 12.9 G/DL
- LEUKOCYTE COUNT [1]: 12.9 x10E3/uL
- LYMPHOCYTE [1]: 87.67%
- MEAN CORPUSCULAR HEMOGLOBIN [1]: 24.07 pg
- MEAN CORPUSCULAR HEMOGLOBIN CONCENTRATION [1]: 37.33 G/DL
- MEAN CORPUSCULAR VOLUME [1]: 64.37 fL
- MONOCYTE [1]: 2.33%
- NEUTROPHIL [1]: 8%
- NUCLEATED RED BLOOD CELLS [1]: 0 /100WBC
- PLATELET COUNT [1]: 1349.67 x10E3/uL
- ALANINE AMINOTRANSFERASE [1]: 42.67 u/L
- ALBUMIN [1]: 4.2 G/DL
- ALKALINE PHOSPHATASE [1]: 412.67 u/L
- ASPARTATE AMINOTRANSFERASE [1]: 83.33 u/L
- BLOOD UREA NITROGEN [1]: 15.33 mg/dL
- CARBON DIOXIDE [1]: 25.67 mmol/L
- CHLORIDE [1]: 105.67 MEQ/L
- CHOLESTEROL [1]: 63 mg/dL
- CREATINE PHOSPHOKINASE [1]: 270.33 u/L
- CREATININE [1]: 0.23 mg/dL
- GLUCOSE [1]: 155.33 mg/dL
- LACTATE DEHYDROGENASE [1]: 325.67 u/L
- LIPASE [1]: 8.67 u/L
- PHOSPHORUS [1]: 12.73 mg/dL
- POTASSIUM [1]: 6.4 MEQ/L
- SODIUM [1]: 146.37 MEQ/L
- TOTAL BILIRUBIN [1]: 0.17 mg/dL
- TOTAL PROTEIN [1]: 5.3 G/DL
- URIC ACID [1]: 1.27 mg/dL
- ABSOLUTE BASOPHIL [2]: 0 CELLS/uL
- ABSOLUTE EOSINOPHIL [2]: 0 CELLS/uL
- ABSOLUTE LYMPHOCYTE [2]: 12836 CELLS/uL
- ABSOLUTE MONOCYTE [2]: 332 CELLS/uL
- ABSOLUTE SEGMENTED NEUTROPHIL [2]: 898.67 CELLS/uL
- BASOPHIL [2]: 0%
- EOSINOPHIL [2]: 0%
- ERYTHROCYTE COUNT [2]: 5.4 x10E6/uL
- HEMATOCRIT [2]: 33.93%
- HEMOGLOBIN [2]: 12.87 G/DL
- LEUKOCYTE COUNT [2]: 14.07 x10E3/uL
- LYMPHOCYTE [2]: 91.33%
- MEAN CORPUSCULAR HEMOGLOBIN [2]: 23.87 pg
- MEAN CORPUSCULAR HEMOGLOBIN CONCENTRATION [2]: 37.93 G/DL
- MEAN CORPUSCULAR VOLUME [2]: 62.87 fL
- MONOCYTE [2]: 2.33%
- NEUTROPHIL [2]: 6.33%
- NUCLEATED RED BLOOD CELLS [2]: 0 /100WBC
- PLATELET COUNT [2]: 1378 x10E3/uL
- ALANINE AMINOTRANSFERASE [2]: 40 u/L
- ALBUMIN [2]: 4.2 G/DL
- ALKALINE PHOSPHATASE [2]: 302.67 u/L
- ASPARTATE AMINOTRANSFERASE [2]: 75.33 u/L
- BLOOD UREA NITROGEN [2]: 20 mg/dL
- CARBON DIOXIDE [2]: 28.33 mmol/L
- CHLORIDE [2]: 105.67 MEQ/L
- CHOLESTEROL [2]: 66.33 mg/dL
- CREATINE PHOSPHOKINASE [2]: 164.33 u/L
- CREATININE [2]: 0.19 mg/dL
- GLUCOSE [2]: 166.33 mg/dL
- LACTATE DEHYDROGENASE [2]: 114 u/L
- LIPASE [2]: 8 u/L
- PHOSPHORUS [2]: 13.1 mg/dL
- POTASSIUM [2]: 6.29 MEQ/L
- SODIUM [2]: 148.4 MEQ/L
- TOTAL BILIRUBIN [2]: 0.17 mg/dL
- TOTAL PROTEIN [2]: 5.63 G/DL
- URIC ACID [2]: 1.6 mg/dL
- ABSOLUTE BASOPHIL [3]: 0 CELLS/uL
- ABSOLUTE EOSINOPHIL [3]: 47.33 CELLS/uL
- ABSOLUTE LYMPHOCYTE [3]: 16441.33 CELLS/uL
- ABSOLUTE MONOCYTE [3]: 452 CELLS/uL
- ABSOLUTE SEGMENTED NEUTROPHIL [3]: 2492.67 CELLS/uL
- BASOPHIL [3]: 0%
- EOSINOPHIL [3]: 0.33%
- ERYTHROCYTE COUNT [3]: 4.84 x10E6/uL
- HEMATOCRIT [3]: 30.03%
- HEMOGLOBIN [3]: 11.4 G/DL
- LEUKOCYTE COUNT [3]: 19.43 x10E3/uL
- LYMPHOCYTE [3]: 85%
- MEAN CORPUSCULAR HEMOGLOBIN [3]: 23.57 pg
- MEAN CORPUSCULAR HEMOGLOBIN CONCENTRATION [3]: 38.03 G/DL
- MEAN CORPUSCULAR VOLUME [3]: 62.03 fL
- MONOCYTE [3]: 2.33%
- NEUTROPHIL [3]: 12.33%
- NUCLEATED RED BLOOD CELLS [3]: 0.33 /100WBC
- PLATELET COUNT [3]: 1335.33 x10E3/uL
- ALANINE AMINOTRANSFERASE [3]: 56.33 u/L
- ALBUMIN [3]: 3.77 G/DL
- ALKALINE PHOSPHATASE [3]: 300.33 u/L
- ASPARTATE AMINOTRANSFERASE [3]: 95 u/L
- BLOOD UREA NITROGEN [3]: 18.33 mg/dL
- CARBON DIOXIDE [3]: 24.33 mmol/L
- CHLORIDE [3]: 105 MEQ/L
- CHOLESTEROL [3]: 68.67 mg/dL
- CREATINE PHOSPHOKINASE [3]: 418.33 u/L
- CREATININE [3]: 0.19 mg/dL
- GLUCOSE [3]: 142.67 mg/dL
- LACTATE DEHYDROGENASE [3]: 520.33 u/L
- LIPASE [3]: 7.67 u/L
- PHOSPHORUS [3]: 12.23 mg/dL
- POTASSIUM [3]: 6.31 MEQ/L
- SODIUM [3]: 146.47 MEQ/L
- TOTAL BILIRUBIN [3]: 0.2 mg/dL
- TOTAL PROTEIN [3]: 5.27 G/DL
- URIC ACID [3]: 1.37 mg/dL
- ABSOLUTE BASOPHIL [4]: 0 CELLS/uL
- ABSOLUTE EOSINOPHIL [4]: 102 CELLS/uL
- ABSOLUTE LYMPHOCYTE [4]: 13327 CELLS/uL
- ABSOLUTE MONOCYTE [4]: 456.67 CELLS/uL
- ABSOLUTE SEGMENTED NEUTROPHIL [4]: 2747.67 CELLS/uL
- BASOPHIL [4]: 0%
- EOSINOPHIL [4]: 0.67%
- ERYTHROCYTE COUNT [4]: 5.19 x10E6/uL
- HEMATOCRIT [4]: 33.1%
- HEMOGLOBIN [4]: 12.5 G/DL
- LEUKOCYTE COUNT [4]: 16.63 x10E3/uL
- LYMPHOCYTE [4]: 80%
- MEAN CORPUSCULAR HEMOGLOBIN [4]: 24.07 pg
- MEAN CORPUSCULAR HEMOGLOBIN CONCENTRATION [4]: 37.77 G/DL
- MEAN CORPUSCULAR VOLUME [4]: 63.73 fL
- MONOCYTE [4]: 2.67%
- NEUTROPHIL [4]: 16.67%
- NUCLEATED RED BLOOD CELLS [4]: 0 /100WBC
- PLATELET COUNT [4]: 1546 x10E3/uL
- ALANINE AMINOTRANSFERASE [4]: 55 u/L
- ALBUMIN [4]: 3.33 G/DL
- ALKALINE PHOSPHATASE [4]: 217 u/L
- ASPARTATE AMINOTRANSFERASE [4]: 111.33 u/L
- BLOOD UREA NITROGEN [4]: 13.67 mg/dL
- CARBON DIOXIDE [4]: 23 mmol/L
- CHLORIDE [4]: 109.33 MEQ/L
- CHOLESTEROL [4]: 66 mg/dL
- CREATINE PHOSPHOKINASE [4]: 1000 u/L
- CREATININE [4]: 0.19 mg/dL
- GLUCOSE [4]: 170 mg/dL
- LACTATE DEHYDROGENASE [4]: 160 u/L
- LIPASE [4]: 8 u/L
- PHOSPHORUS [4]: 12.67 mg/dL
- POTASSIUM [4]: 6.26 MEQ/L
- SODIUM [4]: 147.7 MEQ/L
- TOTAL BILIRUBIN [4]: 0.17 mg/dL
- TOTAL PROTEIN [4]: 5.03 G/DL
- URIC ACID [4]: 2.6 mg/dL

— ChEMBL document CHEMBL3885881, “DrugMatrix”
